Reference: the NIST ThermoML archive (doi:10.1016/j.jct.2013.08.007)
Numbers after ± are expanded uncertainties.

Experiments:
[1] = Liquid; for mass density: Vibrating tube method; for viscosity: 101.33 kPa, Moving piston method
[2] = xn = mol fraction of the nth substance listed; details: Liquid; for viscosity: Moving piston method; for mass density: Vibrating tube method

CCCCO [butan-1-ol]
mass density [kg/m3], [1]
Details | 302.9 K | 323.1 K
100 kPa | 802 ± 0.3 | 785.6 ± 0.3
1010 kPa | – | 786.6 ± 0.3
1020 kPa | 802.7 ± 0.3 | –
2010 kPa | 803.4 ± 0.3 | –
2020 kPa | – | 787.5 ± 0.3
3010 kPa | 804.1 ± 0.3 | 788.3 ± 0.3
4000 kPa | 804.9 ± 0.3 | 789.2 ± 0.3
5010 kPa | 805.7 ± 0.3 | –
5020 kPa | – | 790 ± 0.3
6000 kPa | 806.4 ± 0.3 | –
6020 kPa | – | 790.9 ± 0.3
7000 kPa | – | 791.7 ± 0.3
7020 kPa | 807.2 ± 0.3 | –
8010 kPa | 807.9 ± 0.3 | 792.5 ± 0.3
9020 kPa | 808.7 ± 0.3 | 793.3 ± 0.3
10020 kPa | 809.4 ± 0.3 | 794.2 ± 0.3

[1]
Details | viscosity [mPa·s]
303.15 K | 2.197 ± 0.088
323.3 K | 1.347 ± 0.055

CCCCO [butan-1-ol] + O=C=O
[2]
Details | mass density, 303 K [kg/m3] | mass density, 323.1 K [kg/m3] | viscosity, 303 K [mPa·s] | viscosity, 323.1 K [mPa·s]
920 kPa, x2 = 0.047 | – | 789.3 ± 0.9 | – | 1.143 ± 0.029
1050 kPa, x2 = 0.07 | 808.1 ± 0.6 | – | 1.744 ± 0.079 | –
1920 kPa, x2 = 0.098 | – | 793.3 ± 4.4 | – | 1 ± 0.11
2030 kPa, x2 = 0.14 | 814.3 ± 0.7 | – | 1.428 ± 0.063 | –
2940 kPa, x2 = 0.151 | – | 798.4 ± 1 | – | 0.828 ± 0.054
3220 kPa, x2 = 0.217 | 822.8 ± 0.5 | – | 1.16 ± 0.04 | –
3990 kPa, x2 = 0.223 | – | 802 ± 0.8 | – | 0.722 ± 0.02
4100 kPa, x2 = 0.304 | 828.4 ± 0.4 | – | 0.87 ± 0.044 | –
4970 kPa, x2 = 0.384 | 835.3 ± 0.6 | – | 0.661 ± 0.022 | –
5100 kPa, x2 = 0.288 | – | 806.7 ± 0.6 | – | 0.599 ± 0.017
6250 kPa, x2 = 0.374 | – | 811 ± 0.8 | – | 0.486 ± 0.016

CC [ethane] + CCCCO
[2]
Details | mass density, 303 K [kg/m3] | mass density, 323.1 K [kg/m3] | viscosity, 303 K [mPa·s] | viscosity, 323.1 K [mPa·s]
1050 kPa, x1 = 0.097 | 776.8 ± 0.8 | – | 1.553 ± 0.059 | –
1140 kPa, x1 = 0.086 | – | 762.8 ± 1.1 | – | 1.008 ± 0.021
2050 kPa, x1 = 0.157 | – | 744.2 ± 3.3 | – | 0.801 ± 0.05
2080 kPa, x1 = 0.214 | 745.4 ± 3.1 | – | 1.114 ± 0.05 | –
3070 kPa, x1 = 0.243 | – | 718.4 ± 2.3 | – | 0.618 ± 0.028
3070 kPa, x1 = 0.341 | 704.9 ± 3.2 | – | 0.668 ± 0.039 | –
4070 kPa, x1 = 0.336 | – | 688.3 ± 3.8 | – | 0.462 ± 0.024
4950 kPa, x1 = 0.428 | – | 652.9 ± 2.4 | – | 0.351 ± 0.015
6020 kPa, x1 = 0.579 | – | 588.2 ± 1.9 | – | 0.212 ± 0.012

C [methane] + CCCCO
[2]
Details | mass density, 303 K [kg/m3] | mass density, 323.1 K [kg/m3] | viscosity, 303 K [mPa·s] | viscosity, 323.1 K [mPa·s]
1050 kPa, x1 = 0.02 | – | 782.2 ± 0.7 | – | 1.236 ± 0.035
1060 kPa, x1 = 0.021 | 797.6 ± 0.6 | – | 1.994 ± 0.1 | –
2070 kPa, x1 = 0.035 | – | 778.5 ± 3.2 | – | 1.174 ± 0.13
2100 kPa, x1 = 0.039 | 793.7 ± 3.1 | – | 1.86 ± 0.057 | –
2980 kPa, x1 = 0.048 | – | 775.5 ± 1 | – | 1.131 ± 0.031
3120 kPa, x1 = 0.056 | 789.4 ± 1.8 | – | 1.731 ± 0.25 | –
4030 kPa, x1 = 0.065 | – | 771.6 ± 1 | – | 1.085 ± 0.042
4080 kPa, x1 = 0.071 | 785.8 ± 3.9 | – | 1.67 ± 0.12 | –
5020 kPa, x1 = 0.079 | – | 767.9 ± 1 | – | 1.046 ± 0.029
5090 kPa, x1 = 0.087 | 781.8 ± 2.9 | – | 1.612 ± 0.077 | –
6070 kPa, x1 = 0.095 | – | 764.2 ± 0.6 | – | 1.005 ± 0.034
6070 kPa, x1 = 0.102 | 778.3 ± 0.7 | – | 1.548 ± 0.083 | –
